In US5055480A, “Topically active ocular gem-diacylthiadiazole sulfonamide carbonic anhydrase inhibitors” (Research Corporation Technologies, Inc., priority 1990, dated 1991):

How the values were obtained:
[1] = biological target: purified carbonic anhydrase (Homo sapiens, UniProt P00918); assay: Enzymatic carbonic anhydrase inhibition assay (modification of Maren's micromethod); format: biochemical; details: relative to acetazolamide control = 100%
Procedure: CAI efficacy and potency are assessed using an enzymatic method. […] Essentially, a reaction volume of 0.8 mL containing a carbonate/bicarbonate buffer, phenol red, purified carbonic anhydrase, and inhibitor is maintained at 0° and saturated with CO2 by constant bubbling. The time required for acidification to a color change endpoint is monitored as the dependent variable.

[2] = oral administration; cited from earlier work
[3] = topical CAI, lowering of IOP; cited from earlier work

SMILES	Relative CA inhibition Potency [1]	other results
NS(=O)(=O)c1nnc(NC(CCC(=O)O)CC(=O)O)s1 (stereo not drawn) [Example 5]	60%	
CC(=O)Nc1nnc(S(N)(=O)=O)s1 [acetazolamide, 2-acetylamino-1,3,4-thiadiazole-5-sulfonamide]		effect on IOP [2]: decrease IOP
Nc1ccc2nc(S(N)(=O)=O)sc2c1 [aminozolamide]		efficacy in clinical trial [3]: partially effective

Second part, led by results:

Relative CA inhibition Potency [1]	SMILES	other results
48%	NS(=O)(=O)c1nnc(NC(CC(=O)O)C(=O)O)s1 (stereo not drawn) [Example 2]	
22%	NS(=O)(=O)c1nnc(NC(CCC(=O)O)C(=O)O)s1 (stereo not drawn) [Example 3]	
20%	NS(=O)(=O)c1nnc(NC(CCCC(=O)O)C(=O)O)s1 (stereo not drawn) [Example 4]	
